How the values were obtained:
[1] = tested on: Blumeria graminis f. Sp. Tritici (Erysiphe graminis f. Sp. Tritici); assay: Blumeria graminis f. sp. tritici / wheat / leaf disc preventative (powdery mildew on wheat); assay type: in vivo; conditions: foliar, wheat leaf disc cv. Kanzler, inoculated 1 day after application, assessed 6-8 days after application, read-out: disease control
Experimental: Fungicidal Activity Against Blumeria graminis f. Sp. Tritici (Erysiphe graminis f. Sp. Tritici)/Wheat/Leaf Disc Preventative (Powdery Mildew on Wheat)
Wheat leaf segments cv. Kanzler were placed on agar in a multiwell plate (24-well format) and sprayed with the formulated test compound diluted in water. The leaf disks were inoculated by shaking powdery mildew infected plants above the test plates 1 day after application. The inoculated leaf disks were incubated at 20° C. and 60% rh under a light regime of 24 h darkness followed by 12 h light/12 h darkness in a climate chamber and the activity of a compound was assessed as percent disease control compared to untreated when an appropriate level of disease damage appears on untreated check leaf segments (6-8 days after application).

[2] = tested on: Mycosphaerella graminicola (Septoria tritici); assay: Mycosphaerella graminicola (Septoria tritici) / liquid culture (Septoria blotch); assay type: cell-based; conditions: Zymoseptoria tritici, 96 h, liquid culture (PDB), inhibition of growth photometrically 4-5 days after application, read-out: disease control
Experimental: (§1) Fungicidal Activity Against Mycosphaerella graminicola (Septoria tritici)/Liquid Culture (Septoria Blotch) Conidia of the fungus from cryogenic storage were directly mixed into nutrient broth (PDB potato dextrose broth). After placing a (DMSO) solution of test compound into a microtiter plate (96-well format), the nutrient broth containing the fungal spores was added. The test plates were incubated at 24° C. and the inhibition of growth was determined photometrically 4-5 days after application.

[3] = tested on: Puccinia recondite f. Sp. Tritici; assay: Puccinia recondita f. sp. tritici / wheat / leaf disc preventative (brown rust); assay type: in vivo; conditions: foliar, wheat leaf disc cv. Kanzler, inoculated 1 day after application, assessed 7-9 days after application, read-out: disease control
Experimental: Fungicidal Activity Against Puccinia recondite f. Sp. Tritici/Wheat/Leaf Disc Preventative (Brown Rust) Wheat leaf segments cv. Kanzler were placed on agar in multiwell plates (24-well format) and sprayed with the formulated test compound diluted in water. The leaf disks were inoculated with a spore suspension of the fungus 1 day after application. The inoculated leaf segments were incubated at 19° C. and 75% rh under a light regime of 12 h light/12 h darkness in a climate cabinet and the activity of a compound was assessed as percent disease control compared to untreated when an appropriate level of disease damage appears in untreated check leaf segments (7-9 days after application).

[4] = tested on: Botryotinia fuckeliana (Botrytis cinerea); assay: Botryotinia fuckeliana (Botrytis cinerea) / liquid culture (gray mould); assay type: cell-based; conditions: 72 h, liquid culture (Vogels broth), inhibition of growth photometrically 3-4 days after application, read-out: disease control
Experimental: as §1, with “Botryotinia fuckeliana (Botrytis cinerea)/Liquid” for “Mycosphaerella graminicola (Septoria tritici)/Liquid”, “(Gray Mould)” for “(Septoria Blotch)”, “(Vogels” for “(PDB potato dextrose”, “3-4” for “4-5”

[5] = tested on: Gaeumannomyces graminis; assay: Gaeumannomyces graminis / liquid culture (take-all of cereals); assay type: cell-based; conditions: 96 h, liquid culture (PDB), inhibition of growth photometrically 4-5 days after application, read-out: disease control
Experimental: as §1, with “Against Gaeumannomyces graminis/Liquid” for “Against Mycosphaerella graminicola (Septoria tritici)/Liquid”, “Culture (Take-all of Cereals) Mycelial fragments” for “Culture (Septoria Blotch) Conidia”, “spores is” for “spores was”

[6] = tested on: Puccinia recondita f. Sp. Tritici; assay: Puccinia recondita f. sp. tritici / wheat / leaf disc curative (brown rust); assay type: in vivo; conditions: foliar, 192 h, applied one day after inoculation, assessed 8 dpi, read-out: disease control
Experimental: Fungicidal Activity Against Puccinia recondita f. Sp. Tritici/Wheat/Leaf Disc Curative (Brown Rust) Wheat leaf segments are placed on agar in multiwell plates (24-well format). The leaf disks are then inoculated with a spore suspension of the fungus. One day after inoculation the test solution is applied. After appropriate incubation the activity of a compound is assessed 8 dpi (days after inoculation) as curative fungicidal activity. Dose range: 200-22 ppm.

[7] = tested on: Mycosphaerella arachidis (Cercospora arachidicola); assay: Mycosphaerella arachidis (Cercospora arachidicola) / liquid culture (early leaf spot); assay type: cell-based; conditions: 96 h, liquid culture (PDB), inhibition of growth photometrically 4-5 days after application, read-out: disease control
Experimental: as §1, with “arachidis (Cercospora arachidicola)/Liquid” for “graminicola (Septoria tritici)/Liquid”, “(Early Leaf Spot)” for “(Septoria Blotch)”

[8] = tested on: Fusarium culmorum; assay: Fusarium culmorum / liquid culture (root rot); assay type: cell-based; conditions: liquid culture (PDB), inhibition of growth photometrically after 48 hrs, read-out: disease control
Experimental: Fungicidal Activity Against Fusarium culmorum/Liquid Culture (Root Rot)
Conidia of the fungus from cryogenic storage were directly mixed into nutrient broth (PDB potato dextrose broth). After placing a (DMSO) solution of the test compounds into a microtiter plate (96-well format) the nutrient broth containing the fungal spores was added. The test plates were incubated at 24 C and the inhibition of growth was determined photometrically after 48 hrs.

| Compound | pest or weed control at 200 ppm [1] [%] | inhibition of growth at 200 ppm [2] [%] | pest or weed control at 200 ppm [3] [%] | inhibition of growth at 200 ppm [4] [%] | inhibition of growth at 200 ppm [5] [%] | pest or weed control at 200 ppm [6] [%] | inhibition of growth at 200 ppm [7] [%] | inhibition of growth at 200 ppm [8] [%] | melting point [°C] |
| --- | --- | --- | --- | --- | --- | --- | --- | --- | --- |
| OC(Cn1ccnc1)(c1ccc(C#CC2CC2)cc1)C(F)(F)c1ccccn1 (centres unmarked) [Compound 6] | ≥ 80 | ≥ 80 | ≥ 80 | ≥ 80 | ≥ 80 | ≥ 80 | ≥ 80 | – | – |
| OC(Cn1ccnc1)c1ccc(C#CC2CC2)cc1Cl (centres unmarked) [Compound 5] | ≥ 80 | – | ≥ 80 | ≥ 80 | – | ≥ 80 | ≥ 80 | – | – |
| N#CC(Cc1cccnc1)c1ccc(C#CC2CC2)cc1 (centres unmarked) [Compound 1] | ≥ 80 | ≥ 80 | – | ≥ 80 | ≥ 80 | ≥ 80 | ≥ 80 | ≥ 80 | – |
| OC(Cn1cncn1)(c1ccc(C#CC2CC2)cc1)C(F)(F)c1ccccn1 (centres unmarked) [Compound 7] | ≥ 80 | ≥ 80 | ≥ 80 | ≥ 80 | ≥ 80 | ≥ 80 | ≥ 80 | ≥ 80 | – |
| Cc1cncc(CC(C#N)c2ccc(C#CC3CC3)cc2)c1 (centres unmarked) [Compound 3] | ≥ 80 | ≥ 80 | – | ≥ 80 | ≥ 80 | – | ≥ 80 | ≥ 80 | – |
| N#CC(Cc1cccnc1)c1ccc(C#CC2CC2)cc1F (centres unmarked) [Compound 10] | ≥ 80 | ≥ 80 | ≥ 80 | ≥ 80 | ≥ 80 | ≥ 80 | ≥ 80 | ≥ 80 | – |
| OC(Cn1cncn1)(c1ccc(C#CC2CC2)cc1)C(F)(F)c1ccc(Cl)cn1 (centres unmarked) [Compound 13] | ≥ 80 | ≥ 80 | ≥ 80 | ≥ 80 | – | ≥ 80 | ≥ 80 | ≥ 80 | 88 to 94 |
| CC(C)C#Cc1ccc(C(O)(Cn2cncn2)C(F)(F)c2ccc(Cl)cn2)cc1 (centres unmarked) [Compound 11] | ≥ 80 | ≥ 80 | ≥ 80 | ≥ 80 | ≥ 80 | ≥ 80 | ≥ 80 | ≥ 80 | 128 to 132 |
| N#CC(Cc1cncnc1)c1ccc(C#CC2CC2)cc1 (centres unmarked) [Compound 2] | ≥ 80 | ≥ 80 | ≥ 80 | – | ≥ 80 | ≥ 80 | ≥ 80 | ≥ 80 | – |
| CCCC#Cc1ccc(C(O)(Cn2cncn2)C(F)(F)c2ccc(Cl)cn2)cc1 (centres unmarked) [Compound 12] | ≥ 80 | ≥ 80 | ≥ 80 | ≥ 80 | ≥ 80 | ≥ 80 | ≥ 80 | ≥ 80 | 124 to 128 |
